What all share (assay type): toxicity, organism-based
Conditions in all cases: salmonella enterica subsp. enterica serovar typhimurium

Series [1] concerns Salmonella typhimurium. Nature of the series: Induction of mutagenesis in Salmonella typhimurium TA98 up to 5000 ug/plate by Ames test. (In general: In the Ames test, an excess of revertant colonies over the control signals mutagenicity.)
The test system of series [2] is Salmonella typhimurium. Briefly: Induction of mutagenesis in Salmonella typhimurium TA100 up to 5000 ug/plate by Ames test in presence of rat liver S9 fraction.
For series [3], the system named is Salmonella typhimurium. Nature of the series: Induction of mutagenesis in Salmonella typhimurium TA100 up to 5000 ug/plate by Ames test.
In series [4] the test system is Salmonella typhimurium. Nature of the series: Induction of mutagenesis in Salmonella typhimurium TA98 up to 5000 ug/plate by Ames test in presence of rat liver S9 fraction.
Series [5] concerns Salmonella typhimurium. Nature of the series: Induction of mutagenesis in Salmonella typhimurium TA98 at 500 ug/plate by Ames test in presence of rat liver S9 fraction relative to control.
Series [6] has as its system Salmonella typhimurium. Nature of the series: Induction of mutagenesis in Salmonella typhimurium TA100 at 160 ug/plate by Ames test in presence of rat liver S9 fraction relative to control.
Series [7] concerns Salmonella typhimurium. Briefly: Induction of mutagenesis in Salmonella typhimurium TA98 at 160 ug/plate by Ames test in presence of rat liver S9 fraction relative to control.
Series [8] deals with Salmonella typhimurium. Nature of the series: Induction of mutagenesis in Salmonella typhimurium TA98 at 1600 ug/plate by Ames test in presence of rat liver S9 fraction relative to control.
The subject of series [9] is Salmonella typhimurium. Briefly: Induction of mutagenesis in Salmonella typhimurium TA100 at 50 ug/plate by Ames test in presence of rat liver S9 fraction relative to control.
Series [10] deals with Salmonella typhimurium. Nature of the series: Induction of mutagenesis in Salmonella typhimurium TA100 at 500 ug/plate by Ames test in presence of rat liver S9 fraction relative to control.
For series [11], the system named is Salmonella typhimurium. Briefly: Induction of mutagenesis in Salmonella typhimurium TA98 at 50 ug/plate by Ames test in presence of rat liver S9 fraction relative to control.
The subject of series [12] is Salmonella typhimurium. Briefly: Induction of mutagenesis in Salmonella typhimurium TA100 at 16 ug/plate by Ames test in presence of rat liver S9 fraction relative to control.

With `N#Cc1cc(N)ccc1-c1ccccc1Cl`, the Activity result in series [1], in series [2], in [3] and in [4] was “Non-toxic” each time.
As for `Nc1ccc(-c2c(F)cccc2F)cc1`, the “fold change (FC)” value in [5] was found to be 7; in series [6], 3. Further, the Activity result in [1] and in series [3] was “Non-toxic” each time.
As to `Nc1ccc(-c2ccccc2F)c(F)c1`, the Activity result in series [1], in [2], in [3] and in series [4] was “Non-toxic” each time.
`Nc1ccc(-c2ccccc2Cl)cc1`: the Activity entry in series [1] and in [3] was “Non-toxic” in each case. Moreover, the “fold change (FC)” value in series [7] was found to be 11; in series [6], 5.
As to `Nc1ccc(-c2ccccc2Cl)c(F)c1`, the Activity entry in series [1], in series [2], in series [3] and in series [4] was “Non-toxic” each time.
On to `CS(=O)(=O)NCc1ccc(-c2ccc(N)cc2F)c(Cl)c1`, for which the Activity result in series [1], in series [2] and in [3] was “Non-toxic” throughout. The “fold change (FC)” value in [8] was found to be 3.
Turning to `N#Cc1ccc(-c2ccc(N)cc2F)c(Cl)c1`, the Activity entry in series [1], in [2], in [3] and in [4] was “Non-toxic” each time.
In the case of `Nc1ccc(-c2ccccc2)c(F)c1`, the Activity result in series [1] and in series [3] was “Non-toxic” each time. The “fold change (FC)” value is reported as 2 in series [7] and 3 in series [6].
With `Nc1ccc(-c2ccccc2)c(Cl)c1`, the Activity entry in series [1], in series [2], in series [3] and in series [4] was “Non-toxic” each time.
As for `Nc1ccc(-c2ccccc2F)cc1`, the Activity entry in [1] and in [3] was “Non-toxic” each time. For the same compound, the entries for the “fold change (FC)” value in [7] and in series [6] were 26 and 10, respectively.
Take `Nc1ccc(-c2cccc(Cl)c2)cc1`: the Activity entry in series [1] and in series [3] was “Non-toxic” in each case. The results for the “fold change (FC)” value in series [7] and in [9] were 47 and 12, respectively.
Regarding `Nc1ccc(-c2ccc(Cl)cc2)cc1`, the Activity result in series [1] and in series [3] was “Non-toxic” each time. Also, the “fold change (FC)” value was determined as 54 in series [7] and 14 in series [10].
As to `Nc1ccc(-c2c(F)cccc2F)c(F)c1`, the Activity result in [1], in [2], in series [3] and in series [4] was “Non-toxic” in each case.
As to `Nc1ccc(-c2ccc(F)cc2F)c(F)c1`, the Activity result in series [1], in series [2], in series [3] and in series [4] was “Non-toxic” in each case.
On to `N#Cc1cc(Cl)ccc1-c1ccc(N)cc1F`, for which the Activity entry in series [1], in series [2], in series [3] and in series [4] was “Non-toxic” throughout.
`Nc1ccc(-c2c(F)cccc2Cl)c(F)c1`: the Activity result in series [1], in series [2], in series [3] and in [4] was “Non-toxic” in each case.
For the compound `Nc1ccc(-c2ccccc2)cc1Cl`, the Activity entry in [1] and in series [3] was “Non-toxic” throughout. Besides, the “fold change (FC)” value in series [9] was determined as 37; in series [11] it was 54.
With `Nc1ccc(-c2ccccc2)cc1F`, the Activity result in series [1] and in [3] was “Non-toxic” throughout. Further, the “fold change (FC)” value in series [11] is recorded as 54; in series [12] it was 27.
In the case of `Nc1ccc(-c2ccc(F)cc2)cc1`, the Activity entry in [1] and in series [3] was “Non-toxic” in each case. Further, the entries for the “fold change (FC)” value in series [7] and in series [6] were 43 and 21, respectively.
`Nc1ccc(-c2cccc(F)c2)cc1`: the Activity entry in series [1] and in series [3] was “Non-toxic” each time. The “fold change (FC)” value in series [7] was found to be 38; in series [6] it was 13.

Source of the values: ChEMBL document CHEMBL2046442, “Rationally designing safer anilines: the challenging case of 4-aminobiphenyls” (J Med Chem, 2012).
